Results taken from PubChem BioAssay AID1963866 (Molecular Pharmacology Branch, DTP, NCI, 2024).

Tested on: PDC KRAS tumor spheroids with HUVEC/MSC, viability
Assay: Anticancer human tumor 349418-098-R-PDC patient-derived lung adenocarcinoma cell line growth inhibition [KRAS2]
Conditions: for IC50: curve of first compound; for viability, T/C: stronger effect = lower value
From the text: Multicellular complex tumor spheroid response to RAS pathway inhibitors in combination with a targeted agents in patient-derived cell lines with oncogenic KRAS variants from multiple cancer types
A high-throughput screen of multi-cell type tumor spheroids was designed to identify active combinations of targeted small molecules and KRAS pathway inhibitors. Complex spheroids include a stromal component modeled by human endothelial cells (HUVEC) and fibroblasts modeled by human mesenchymal stem cells (MSCs). The concentration ranges selected for each drug and investigational agent were based upon clinically achievable concentrations if the clinical Cmax of the agent was known.
Compounds. The drugs and investigational agents: BI-3406 (NSC825286), BAY-293 (NSC824723), batoprotafib (TNO155; NSC825523), sotorasib (AMG 510; NSC818433), MRTX1257 (NSC819558), elimusertib (BAY 1895344; NSC800525), molibresib (GSK525762; NSC774829), temuterkib (LY3214996; NSC803410), venetoclax (NSC766270), alisertib (NSC759677), olaparib (NSC753686), talazoparib (NSC767125), erdafitinib (NSC781556), ipatasertib (NSC767898), cabozantinib (NSC761068), nintedanib (NSC756659), abemaciclib (NSC768073), docetaxel (NSC628503), trametinib (NSC758246), and sapanisertib (NSC764658) were obtained from the National Cancer Institute (NCI) Developmental Therapeutics Program Chemical Repository. The FDA-approved anticancer drug set is available from the Developmental Therapeutics Program. […] The stock solutions were prepared in dimethyl sulfoxide (DMSO, Sigma-Aldrich, St. Louis, MO, cat. D2650) at 800-fold the tested concentration and stored at -70 degrees C prior to their use. All drugs and investigational agents were tested over a range starting from a high concentration at or near the clinical Cmax and decreasing in half-log increments. If the clinical Cmax for an agent had not been determined, the highest concentration tested was 10 microM.
Cell Culture. All cells were maintained in an incubator at 37 degrees C and 5% CO2 with 95% humidity. The PDC lines were cultured according to standard operating procedures established by the NCI PDMR (https://pdmr.cancer.gov/sops/default.htm). Briefly, all PDCs were thawed and cultured in Matrigel-coated flasks prepared with a working solution of 1X Ham's F-12 nutrient mix, without supplementation (Invitrogen, Waltham, MA, cat. 11765054), 100 U/mL penicillin-streptomycin (Invitrogen, cat. 15140122), and 2.5% Matrigel (Corning Inc., Corning, NY, cat. 354248) for the first three passages. All PDCs were cultured in complete DMEM/F-12 media containing advanced DMEM/F-12 (Invitrogen, cat. 12634028), 4.9% defined fetal bovine serum, heat inactivated (HyClone Laboratories Inc., Logan, UT, cat. SH30070.03HI), 389 ng/mL hydrocortisone (Sigma-Aldrich, cat. H4001), 9.7 ng/mL human EGF recombinant protein (Invitrogen, cat. PHG0313), 23.4 microg/mL adenine (Sigma-Aldrich, cat. A2786), 97.3 U/mL penicillin-streptomycin (Invitrogen, cat. 15140122), 1.9 mM L-glutamine (Invitrogen, cat. 25030081), and 9.7 microM Y-27632 dihydrochloride (Tocris Bioscience, Bristol, United Kingdom, cat. 1254). The PDCs were cultured in complete DMEM/F12 media without 9.7 microM Y-27632 dihydrochloride for at least two passages prior to the screen. The established cell line HOP-62 was cultured in RPMI 1640 medium, HEPES (Invitrogen, cat. 22400105) with 10% defined fetal bovine serum (HyClone Laboratories Inc., cat. SH30070.03) and 2 mM L-glutamine (Invitrogen, cat. 25030081). The pooled donor HUVEC were cultured in endothelial cell growth medium 2 (PromoCell, Heidelberg, Germany, cat. C-22011) and the hMSC were cultured in mesenchymal stem cell growth medium 2 (PromoCell, cat. C-28009). For all experiments, HUVEC and hMSC were used at passages </=5, while the malignant cell lines were used at passages </=15. […]

[1] = second compound 0.1 µM, first compound 0.0316 µM
[2] = second compound 0.1 µM, first compound 0.1 µM
[3] = second compound 0.1 µM, first compound 0.316 µM
[4] = second compound 0.1 µM, first compound 1 µM
[5] = second compound 0.1 µM, first compound 3.16 µM
[6] = second compound 0.1 µM, first compound 10 µM
[7] = second compound 0.316 µM, first compound 0.0316 µM
[8] = second compound 0.316 µM, first compound 0.1 µM
[9] = second compound 0.316 µM, first compound 0.316 µM
[10] = second compound 0.316 µM, first compound 1 µM
[11] = second compound 0.316 µM, first compound 3.16 µM
[12] = second compound 0.316 µM, first compound 10 µM
[13] = second compound 1 µM, first compound 0.0316 µM
[14] = second compound 1 µM, first compound 0.1 µM
[15] = second compound 1 µM, first compound 0.316 µM
[16] = second compound 1 µM, first compound 1 µM
[17] = second compound 1 µM, first compound 3.16 µM
[18] = second compound 1 µM, first compound 10 µM
[19] = second compound 3.16 µM, first compound 0.0316 µM
[20] = second compound 3.16 µM, first compound 0.1 µM
[21] = second compound 3.16 µM, first compound 0.316 µM
[22] = second compound 3.16 µM, first compound 1 µM
[23] = second compound 3.16 µM, first compound 3.16 µM
[24] = second compound 3.16 µM, first compound 10 µM
[25] = second compound 10 µM, first compound 0.0316 µM
[26] = second compound 10 µM, first compound 0.1 µM
[27] = second compound 10 µM, first compound 0.316 µM
[28] = second compound 10 µM, first compound 1 µM
[29] = second compound 10 µM, first compound 3.16 µM
[30] = second compound 10 µM, first compound 10 µM
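Also: spheroids exposed to compounds for seven days before readout.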

SMILES	IC50 (second compound 0.1 µM)	IC50 (second compound 0.316 µM)	IC50 (second compound 1 µM)	IC50 (second compound 3.16 µM)	IC50 (second compound 10 µM)	viability, T/C [1]	viability, T/C [2]	viability, T/C [3]	viability, T/C [4]	viability, T/C [5]	viability, T/C [6]	viability, T/C [7]	viability, T/C [8]	viability, T/C [9]	viability, T/C [10]	viability, T/C [11]	viability, T/C [12]	viability, T/C [13]	viability, T/C [14]	viability, T/C [15]	other results
COc1cc(Nc2ncc3c(n2)-c2ccc(Cl)cc2C(c2c(F)cccc2OC)=NC3)ccc1C(=O)O + CC1OCC2(CCN(c3cnc(Sc4ccnc(N)c4Cl)c(N)n3)CC2)C1N	43.1 nM	43.6 nM	50.2 nM	< 31.6 nM	33.6 nM	56.5%	32.4%	32.4%	40.1%	30.8%	24%	57.4%	27.8%	38.8%	26.4%	40.2%	20.4%	57.4%	35.4%	39%	viability, T/C [16]: 38.1%; viability, T/C [17]: 27.3%; viability, T/C [18]: 25%; viability, T/C [19]: 39.4%; viability, T/C [20]: 36.3%; viability, T/C [21]: 28%; viability, T/C [22]: 28.7%; viability, T/C [23]: 32.9%; viability, T/C [24]: 28.4%; viability, T/C [25]: 51%; viability, T/C [26]: 33.5%; viability, T/C [27]: 32.8%; viability, T/C [28]: 31.1%; viability, T/C [29]: 31.4%; viability, T/C [30]: 27%
O=C(c1cc(Cc2n[nH]c(=O)c3ccccc23)ccc1F)N1CCN(C(=O)C2CC2)CC1 + CC1OCC2(CCN(c3cnc(Sc4ccnc(N)c4Cl)c(N)n3)CC2)C1N	4710 nM	3270 nM	4240 nM	2800 nM	1450 nM	95.9%	89.7%	89%	81.3%	63.5%	25.3%	78.8%	82.6%	77.3%	78.5%	50.6%	29.2%	107%	97.3%	81.8%	viability, T/C [16]: 59.9%; viability, T/C [17]: 66.7%; viability, T/C [18]: 33%; viability, T/C [19]: 90.8%; viability, T/C [20]: 84%; viability, T/C [21]: 68.6%; viability, T/C [22]: 70.6%; viability, T/C [23]: 48.3%; viability, T/C [24]: 23.9%; viability, T/C [25]: 80.9%; viability, T/C [26]: 72.8%; viability, T/C [27]: 59.2%; viability, T/C [28]: 56.6%; viability, T/C [29]: 44.1%; viability, T/C [30]: 29.7%
CCNC(=O)CC1N=C(c2ccc(Cl)cc2)c2cc(OC)ccc2-n2c(C)nnc21 (configuration not stated) + COc1cc2nc(C)nc(NC(C)c3cc(N)cc(C(F)(F)F)c3)c2cc1OC1CCOC1	93 nM	106 nM	99 nM	56.5 nM	< 31.6 nM	80%	48%	20.6%	7.27%	2.39%	0.58%	105%	51.4%	21.9%	7.39%	2.09%	0.7%	85.2%	49.9%	16.4%	viability, T/C [16]: 6.15%; viability, T/C [17]: 1.76%; viability, T/C [18]: 0.68%; viability, T/C [19]: 65.5%; viability, T/C [20]: 34.8%; viability, T/C [21]: 13.5%; viability, T/C [22]: 5.23%; viability, T/C [23]: 1.41%; viability, T/C [24]: 0.77%; viability, T/C [25]: 17%; viability, T/C [26]: 10.3%; viability, T/C [27]: 6.19%; viability, T/C [28]: 1.96%; viability, T/C [29]: 0.42%; viability, T/C [30]: 0.33%
COC(=O)c1ccc2c(C(=Nc3ccc(N(C)C(=O)CN4CCN(C)CC4)cc3)c3ccccc3)c(O)[nH]c2c1 + C=CC(=O)N1CCN(c2nc(=O)n(-c3c(C)ccnc3C(C)C)c3nc(-c4c(O)cccc4F)c(F)cc23)C(C)C1	157 nM	226 nM	242 nM	106 nM	< 31.6 nM	88.1%	49.6%	47.2%	26.5%	14.8%	15.1%	94.5%	63.1%	47.1%	27.9%	17.2%	15.5%	107%	73.2%	39.8%	viability, T/C [16]: 30.4%; viability, T/C [17]: 18.1%; viability, T/C [18]: 13.7%; viability, T/C [19]: 72.4%; viability, T/C [20]: 47.9%; viability, T/C [21]: 35.7%; viability, T/C [22]: 28.4%; viability, T/C [23]: 11.6%; viability, T/C [24]: 10.9%; viability, T/C [25]: 40%; viability, T/C [26]: 35.2%; viability, T/C [27]: 31.4%; viability, T/C [28]: 25.3%; viability, T/C [29]: 5.38%; viability, T/C [30]: 1.56%
O=C(c1cc(Cc2n[nH]c(=O)c3ccccc23)ccc1F)N1CCN(C(=O)C2CC2)CC1	–	–	–	–	–	–	–	–	–	–	–	–	–	–	–	–	–	–	–	–	viability, T/C (compound 0.0316 µM): 91.8% [middle of 5 runs]; viability, T/C (compound 0.1 µM): 94.4% [middle of 5 runs]
